Experimental data as given in ChEMBL document CHEMBL3044972, “Synthesis, anti-inflammatory, and cytotoxicity evaluation of 9,10-dihydroanthracene-9,10-,-succinimide and bis-succinimide derivatives” (2013).

Legend:
Type in all cases: functional
[1] = system: NCI-H522; test: Cytotoxicity against Homo sapiens (human) NCI-H522 cells assessed as growth inhibition at 10 uM after 48 hr by SRB assay; conditions: NCI-H522, 48 h, read-out: GI
[2] = system: PA-1; test: Cytotoxicity against Homo sapiens (human) PA1 cells assessed as growth inhibition at 10 uM after 48 hr by SRB assay; conditions: PA-1, 48 h, read-out: GI
[3] = system: HepG2; test: Cytotoxicity against Homo sapiens (human) HepG2 cells assessed as growth inhibition at 10 uM after 48 hr by SRB assay; conditions: HepG2, 48 h, read-out: GI
[4] = system: HCT-15; test: Cytotoxicity against Homo sapiens (human) HCT15 cells assessed as growth inhibition at 10 uM after 48 hr by SRB assay; conditions: HCT-15, 48 h, read-out: GI
[5] = system: T47D; test: Cytotoxicity against Homo sapiens (human) T47D cells assessed as growth inhibition at 10 uM after 48 hr by SRB assay; conditions: read-out: GI
[6] = system: Rattus norvegicus; test: Anti-inflammatory activity against albino Charles Foster Rattus norvegicus (rat) assessed as inhibition of carrageenan-induced paw edema at 50 mg/kg, po administered 30 min prior to carrageenan injection measured after 1-3 hr by plethysmometer; parameters: scale not given: the % may be the effect or the level left

Row | Structure (SMILES) | inhibition of growth at 10 µM [1] [%] | inhibition of growth at 10 µM [2] [%] | inhibition of growth at 10 µM [3] [%] | inhibition of growth at 10 µM [4] [%] | inhibition of growth at 10 µM [5] [%] | Activity [6] [%]
1 | O=C1C2C3c4ccccc4C(c4ccccc43)C2C(=O)N1CN1CCOCC1 (configuration not stated) | 24 | 24 | 34 | 22 | 20 | 39
2 | O=C1C2C3c4ccccc4C(c4ccccc43)C2C(=O)N1Cc1ccco1 (configuration not stated) | 25 | 27 | 38 | 15 | 40 | 15
3 | O=C1C2C3c4ccccc4C(c4ccccc43)C2C(=O)N1Cc1ccccn1 (configuration not stated) | 20 | 47 | 35 | 7 | 26 | 14
4 | O=C1C2C3c4ccccc4C(c4ccccc43)C2C(=O)N1CC1CCCO1 (configuration not stated) | 30 | 31 | 55 | 22 | 23 | 34
5 | O=C1C2C3c4ccccc4C(c4ccccc43)C2C(=O)N1CCN1CCNCC1 (configuration not stated) | – | – | – | – | – | 31
6 | O=C1C2C3c4ccccc4C(c4ccccc43)C2C(=O)N1CC1CCNCC1 (configuration not stated) | 25 | 26 | 32 | 11 | 17 | 35
7 | O=C1C2C3c4ccccc4C(c4ccccc43)C2C(=O)N1Cc1ccccc1 (configuration not stated) | 62 | 43 | 52 | 12 | 22 | 37
8 | O=C1C2C3c4ccccc4C(c4ccccc43)C2C(=O)N1C1CC1 (configuration not stated) | 24 | 37 | 53 | 19 | 21 | 23
9 | CC1(C)CC(N2C(=O)C3C4c5ccccc5C(c5ccccc54)C3C2=O)CC(C)(C)N1 (configuration not stated) | 15 | 31 | 40 | 20 | 10 | 32
10 | O=C1C2C3c4ccccc4C(c4ccccc43)C2C(=O)N1Cc1ccncc1 (configuration not stated) | 27 | 21 | 61 | 12 | 24 | 37
11 | O=C1C2C3c4ccccc4C(c4ccccc43)C2C(=O)N1CCN1CCCC1 (configuration not stated) | 13 | 36 | 47 | 14 | 7 | 28
12 | O=C1C2C3c4ccccc4C(c4ccccc43)C2C(=O)N1CCN1CCCCC1 (configuration not stated) | 23 | 25 | 38 | 6 | 20 | 27
13 | O=C1CCCN1CCN1C(=O)C2C3c4ccccc4C(c4ccccc43)C2C1=O (configuration not stated) | 15 | 33 | 41 | 16 | 26 | 17
14 | O=C1C2C3c4ccccc4C(c4ccccc43)C2C(=O)N1CCCn1ccnc1 (configuration not stated) | 32 | 40 | 48 | 30 | 28 | 27
15 | O=C1C2C3c4ccccc4C(c4ccccc43)C2C(=O)N1Nc1ccccc1 (configuration not stated) | 52 | 46 | 52 | 11 | 13 | 11
16 | O=C1C2C3c4ccccc4C(c4ccccc43)C2C(=O)N1Nc1ccccn1 (configuration not stated) | 27 | 13 | 37 | 4 | 1 | 38
17 | O=C1C2C3c4ccccc4C(c4ccccc43)C2C(=O)N1CCN1C(=O)C2C3c4ccccc4C(c4ccccc43)C2C1=O (configuration not stated) | 11 | 9 | 29 | 10 | 5 | 20
18 | O=C1C2C3c4ccccc4C(c4ccccc43)C2C(=O)N1CCCN1C(=O)C2C3c4ccccc4C(c4ccccc43)C2C1=O (configuration not stated) | 17 | 6 | 45 | 27 | 24 | 33
19 | O=C1C2C3c4ccccc4C(c4ccccc43)C2C(=O)N1CCCCN1C(=O)C2C3c4ccccc4C(c4ccccc43)C2C1=O (configuration not stated) | 23 | 37 | 25 | 26 | 19 | 25
20 | CC(CN1C(=O)C2C3c4ccccc4C(c4ccccc43)C2C1=O)N1C(=O)C2C3c4ccccc4C(c4ccccc43)C2C1=O (configuration not stated) | 20 | 14 | 41 | 9 | 2 | 22
21 | O=C1C2C3c4ccccc4C(c4ccccc43)C2C(=O)N1CCCN1CCN(CCCN2C(=O)C3C4c5ccccc5C(c5ccccc54)C3C2=O)CC1 (configuration not stated) | 17 | 16 | 33 | 10 | 33 | 15
22 | C[C@@H]1C[C@@H]([C@H](O)CC2CC(=O)NC(=O)C2)C(=O)[C@@H](C)C1 [CYCLOHEXIMIDE] | 13 | 32 | 15 | 12 | 9 | –
23 | O=P1(N(CCCl)CCCl)NCCCO1 (configuration not stated) [CYCLOPHOSPHAMIDE ANHYDROUS] | 9 | 15 | 14 | 5 | 12 | –
24 | O=c1[nH]cc(F)c(=O)[nH]1 [FLUOROURACIL] | 18 | 18 | 28 | 15 | 10 | –
25 | CC(C)Cc1ccc(C(C)C(=O)O)cc1 (configuration not stated) [IBUPROFEN] | – | – | – | – | – | 39
